Data: patent US20220313581A1, “NOVEL COMPOUNDS FOR SKIN LIGHTENING” (Conopco, Inc. , d/b/a UNILEVER, priority 2019, published 2022)

Test system: Melanoderm human tissue (MEL-300-B, Mattek Corp.)
Test: Melanoderm assay (melanin quantitation)
Format: cell-based
Conditions: for Melanin content / skin lightening effect (in words): melanoderm treatment, 10 uM, compared to vehicle control; for Melanin (μg/μg protein): test compound 10 uM, 12 d dosing, melanin normalized to protein, mean +/− standard deviation, n = 3, vehicle control 0.240 +/− 0.020
Method: Control compounds consisted of a negative control (ultrapure water), vehicle control [Dimethylsulfoxide (DMSO) in ultrapure water—final concentration of 0.1%] and positive control (2% kojic acid in ultrapure water—final concentration of 700 uM). Test compounds where prepared in DMSO at 10 mM concentrations and diluted with EPI-100-LLMM media (Mattek Corp.) to a final concentration of 10 uM. Melanoderm human tissue (MEL-300-B, Mattek Corp.) was equilibrated with EPI-100-NMM media for 24 h, followed by equilibration with EPI-100-LLMM media for 48 h prior to treatment with test compounds and controls. Dosing and re-feeding of melanoderms with controls and test compounds continued for a total of 12 d following standard protocols and the melanoderms collected for melanin quantitation, viability analysis and macroscopic/microscopic imaging analysis. For melanin quantitation, tissues were suspended in phosphate buffer saline (PBS) buffer (5 ml) for 5 min, removed from the PBS and washed/rinsed with additional PBS (2 ml). Tissues were treated with 1% sodium bicarbonate solution (300 ul) for 30 min, followed by removal of the sodium bicarbonate solution and washed/rinsed with PBS solution (2×2 ml). Tissues were suspended in Solvable reagent (500 ul) and incubated at 95° C. for 24 h along with melanin standard samples (prepared by suspending melanin (cat #M8631, Sigma-Aldrich) in Solvable reagent to generate melanin standards at 0, 2.5, 5, 10, 25, 50 and 100 ug). All incubated samples were centrifuged at 13000 rpm for 5 min and the optical density of the supernatant was read/determined at 490 nm. The amount of melanin (ug) from each tissue sample was determined from the melanin standard samples calibration curve. Protein concentration of tissue samples was determined using the BCA protein assay kit (Pierce) and melanin content was normalized and expressed as melanin (ug)/protein (ug) (Table 1). Tissue viability as a result of test compound dosing/feeding relative to negative and vehicle controls was determined using the WST-1 reagent kit (cat #05015944001, Roche). Tissue images were examined macroscopically to assess the skin lightening ability of test compounds compared to negative, vehicle and positive controls and microscopically (10× magnification) to assess cytotoxicity.

SMILES | Melanin content / skin lightening effect (in words) | Melanin (μg/μg protein)
CC1CCC(NC(c2ccccc2)c2ccc(OC(C)C)cc2)CC1 (stereo not drawn) [Example 3, N-((4-isopropoxyphenyl)(phenyl)methyl)-4-methylcyclohexanamine] | reduced melanin content | 0.144 +/− 0.006 μg/μg protein
CC(C)Oc1ccc(C(NC2CCC(CCO)CC2)c2ccccc2)cc1 (stereo not drawn) [Example 2, 2-(4-(((4-isopropoxyphenyl)(phenyl)methyl)amino)cyclohexyl)ethanol] | reduced melanin content | 0.076 +/− 0.012 μg/μg protein
CC(C)Oc1ccc(C(NC2CCC(O)CC2)C2CCCCC2)cc1 (stereo not drawn) [Example 1, 4-((cyclohexyl(4-isopropoxyphenyl)methyl)amino)cyclohexanol] | reduced melanin content | 0.158 +/− 0.006 μg/μg protein
